According to patent US5874592A, “Physiologically active substance EI-2128-1” (Kyowa Hakko Kogyo Co., Ltd., priority 1996, dated 1999):
In brackets after ≈: the same amount, converted by molar mass.

Tests used:
Solubility = type: physicochemical; conditions: methanol, acetonitrile, and chloroform
[1] = test system: Enterococcus hirae ATCC 10541; experiment: Antibacterial activity, agar dilution method; type: cell-based; conditions: ATCC10541; Enterococcus hirae ATCC 10541, agar dilution, pH 7.0
[2] = test system: Candida albicans ATCC 10231; experiment: Antibacterial activity, agar dilution method; type: cell-based; conditions: ATCC10231; Candida albicans ATCC 10231, agar dilution, pH 7.0
[3] = test system: production of IL-1β by human monocyte-derived THP-1 cells; experiment: Inhibitory activity against the production of IL-1β by LPS-stimulated THP-1 cells (ELISA); type: cell-based; conditions: LPS 25 μg/ml, 4 hours, PMA-differentiated THP-1 cells, read-out: 50% inhibitory concentration against the IL-1 production by THP-1 cells stimulated by LPS
Method: The inhibitory activity of the compound of the present invention, EI-2128-1, against the production of IL-1β by human monocyte-derived THP-1 cells (ATCC No. TIB 202) was examined in the following manner. The amount of IL-1β was determined by the ELISA method.
THP-1 cells were suspended in RPMI1640 medium (Nissui Pharmaceutical Co., Ltd.) containing 10% inactivated fetal calf serum at a concentration of 1×10^5 cells/ml. The cell suspension was put into wells of a 24-well plate in an amount of 1 ml/well. Phorbol 12-myristate 13-acetate (PMA, final concentration: 30 nM) was added to the wells, followed by incubation in a 5% CO2 -incubator at 37° C. for 65 hours to differentiate the cells into macrophage.
Then, the plate was gently washed with serum-free RPMI1640 medium to remove the cells which were not adhered to the wells, and the residue was cultured for 4 hours in serum-free RPMI1640 medium (1 ml/well) containing lipopolysaccharide (LPS, final concentration: 25 μg/ml) and the test compound (final concentration: 0.05-50 μg/ml).
After the completion of culturing, the amount of IL-1β released into the culture supernatant was determined by using an IL-1β determination kit (Amersham Corp.).
The IL-1 production inhibition rate was calculated according to the following equation to obtain IC50 (50% inhibitory concentration).
IL-1 production inhibition rate (%)=(A-B)/(A-C)×100 […]

[4] = test system: Bacillus subtilis No. 10707; experiment: Antibacterial activity, agar dilution method; type: cell-based; conditions: Bacillus subtilis No. 10707, agar dilution, pH 7.0
[5] = test system: Proteus vulgaris ATCC 6897; experiment: Antibacterial activity, agar dilution method; type: cell-based; conditions: ATCC6897; Proteus vulgaris ATCC 6897, agar dilution, pH 7.0
[6] = test system: Klebsiella pneumoniae subsp. pneumoniae ATCC 10031; experiment: Antibacterial activity, agar dilution method; type: cell-based; conditions: ATCC10031; Klebsiella pneumoniae subsp. pneumoniae ATCC 10031, agar dilution, pH 7.0
[7] = test system: Staphylococcus aureus subsp. aureus ATCC 6538P; experiment: Antibacterial activity, agar dilution method; type: cell-based; conditions: ATCC6538P, pH 7.0

## CCCCCCC(C)CC(C)/C=C/C(=O)NC1CC2(OC1O)C1OC1C(=O)C1OC12 (centres unmarked) [EI-2128-1]
Solubility
  Solubility: Readily soluble in methanol, acetonitrile, and chloroform
[1]
  MIC: 0.33 µg/mL (≈ 0.783 µM)
[2]
  MIC: 42 µg/mL (≈ 99.6 µM)
[3]
  IC50: 100 nM
[4]
  MIC: 0.16 µg/mL (≈ 0.38 µM)
[5]
  MIC: 42 µg/mL (≈ 99.6 µM)
[6]
  MIC: 21 µg/mL (≈ 49.8 µM)
[7]
  MIC: 0.33 µg/mL (≈ 0.783 µM)
